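GI50 marks 50% less growth. TGI: total growth inhibition.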
How the values were obtained:
Assay in all cases: NCI anticancer screen, dose series, 384-well format
HOP-62 NSCLC = test system: HOP-62 NSCLC
HS 578T breast = test system: HS 578T breast
LOX IMVI melanoma = test system: LOX IMVI melanoma
SN12C renal = test system: SN12C renal
NCI-H460 NSCLC = test system: NCI-H460 NSCLC
HL-60(TB) leukemia = test system: HL-60(TB) leukemia
M14 melanoma = test system: M14 melanoma
ACHN renal = test system: ACHN renal
MDA-MB-468 breast = test system: MDA-MB-468 breast
IGROV1 ovarian = test system: IGROV1 ovarian
UACC-257 melanoma = test system: UACC-257 melanoma
COLO 205 colon = test system: COLO 205 colon
OVCAR-5 ovarian = test system: OVCAR-5 ovarian

SMILES	GI50 (HOP-62 NSCLC) [µM]	TGI (HOP-62 NSCLC) [µM]	GI50 (HS 578T breast) [µM]	TGI (HS 578T breast) [µM]	GI50 (LOX IMVI melanoma) [µM]	TGI (LOX IMVI melanoma) [µM]	GI50 (SN12C renal) [µM]	TGI (SN12C renal) [µM]	GI50 (NCI-H460 NSCLC) [µM]	TGI (NCI-H460 NSCLC) [µM]	GI50 (HL-60(TB) leukemia) [µM]	TGI (HL-60(TB) leukemia) [µM]	GI50 (M14 melanoma) [µM]	TGI (M14 melanoma) [µM]	GI50 (ACHN renal) [µM]	TGI (ACHN renal) [µM]	GI50 (MDA-MB-468 breast) [µM]	TGI (MDA-MB-468 breast) [µM]	GI50 (IGROV1 ovarian) [µM]	TGI (IGROV1 ovarian) [µM]	other results
Cn1cc(-c2cc3c(N4CCN(c5ncc([C@@](C)(N)c6ccc(F)cc6)cn5)CC4)ncnn3c2)cn1	3.14	> 50.1	1.75	5.83	0.881	3.47	4.54	16.7	3.73	12.5	2.24	4.94	4.42	19.2	3.7	13.9	1.12	3.03	4.45	16.7	GI50 (UACC-257 melanoma): 2.1 µM; TGI (UACC-257 melanoma): 4.76 µM; GI50 (COLO 205 colon): 2.73 µM; TGI (COLO 205 colon): 6.51 µM; GI50 (OVCAR-5 ovarian): 5.61 µM; TGI (OVCAR-5 ovarian): 29.5 µM
C=CC(=O)Nc1cc(Nc2nccc(-c3cn(C)c4ccccc34)n2)c(OC)cc1N(C)CCN(C)C	1.56	3.37	1.55	3.04	2.06	3.5	1.33	3.13	1.76	3.19	0.756	1.94	1.96	3.39	0.453	2.21	0.0378	0.189	0.44	1.88	GI50 (UACC-257 melanoma): 0.84 µM; TGI (UACC-257 melanoma): 1.58 µM; GI50 (COLO 205 colon): 1.59 µM; TGI (COLO 205 colon): 2.95 µM; GI50 (OVCAR-5 ovarian): 1.62 µM; TGI (OVCAR-5 ovarian): 3.93 µM

Source: PubChem BioAssay (NCI)
